Test results taken from patent US20070142389A1, “PIPERIDINE DERIVATIVES” (PFIZER INC., priority 2005, published 2007).
Where two headings read alike, the source gives them in different places.

Tests used:
[1] = molecular target: T1, human norepinephrine transporter (Homo sapiens, UniProt P23975); assay: hNET Receptor Binding ([125I]-RTI-55 displacement, HEK-293 membranes)
T1 construct: expressed in transfected cells; host or cells: HEK-293
Method: (§1) Cell pastes of HEK-293 cells transfected with a human norepinephrine transporter cDNA were prepared. The cell pastes were resuspended in 400 to 700 mL of Krebs-HEPES assay buffer (25 mM HEPES, 122 mM NaCl, 3 mM KCl, 1.2 mM MgSO4, 1.3 mM CaCl2, and 11 mM glucose, pH 7.4) with a Polytron homogenizer at setting 7 for 30 seconds. Aliquots of membranes (5 mg/mL protein) were stored in liquid nitrogen until used.
The binding assay was set up in Beckman deep-well polypropylene plates with a total volume of 250 μL containing: compound of one of the Examples (10^−5M to 10^−12M), cell membranes, and 50 pM [^125I]-RTI-55 (Perkin Elmer, NEX-272; specific activity 2200 Ci/mmol). The reaction was incubated by gentle agitation for 90 minutes at room temperature and was terminated by filtration through Whatman GF/C filter plates using a Brandel 96-well plate harvester. Scintillation fluid (100 μL) was added to each well, and bound [^125I]-RTI-55 was determined using a Wallac Trilux Beta Plate Counter. Test compounds were run in duplicate, and specific binding was defined as the difference between binding in the presence and absence of 10 μM desipramine.
(§2) Excel and GraphPad Prism software were used for data calculation and analysis. IC50 values were converted to Ki values using the Cheng-Prusoff equation.

[2] = molecular target: T2, human serotonin transporter (Homo sapiens, UniProt P31645); assay: hSERT Receptor Binding ([125I]-RTI-55 displacement, HEK-293 membranes)
T2 construct: expressed in transfected cells; host or cells: HEK-293
T2 sequence (P31645 whole entry): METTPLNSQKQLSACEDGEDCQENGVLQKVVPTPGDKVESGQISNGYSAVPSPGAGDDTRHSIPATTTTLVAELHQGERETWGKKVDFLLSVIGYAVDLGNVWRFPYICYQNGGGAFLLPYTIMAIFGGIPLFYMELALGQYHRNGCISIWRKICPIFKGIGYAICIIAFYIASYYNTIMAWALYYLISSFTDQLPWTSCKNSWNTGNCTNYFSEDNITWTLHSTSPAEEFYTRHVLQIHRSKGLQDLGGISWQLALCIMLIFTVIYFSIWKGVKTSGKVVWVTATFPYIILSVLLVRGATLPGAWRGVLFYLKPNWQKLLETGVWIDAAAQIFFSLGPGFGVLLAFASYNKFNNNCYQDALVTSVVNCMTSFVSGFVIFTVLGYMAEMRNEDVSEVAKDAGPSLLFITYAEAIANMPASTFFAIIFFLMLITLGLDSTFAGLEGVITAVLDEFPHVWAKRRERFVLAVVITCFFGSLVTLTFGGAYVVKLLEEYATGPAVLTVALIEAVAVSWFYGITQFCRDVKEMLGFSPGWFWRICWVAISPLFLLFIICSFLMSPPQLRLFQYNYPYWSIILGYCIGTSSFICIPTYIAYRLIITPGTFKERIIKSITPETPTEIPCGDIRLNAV
Method: as §1, with “serotonin” for “norepinephrine”, “Setting” for “setting”, “(about 2.5” for “(5”
Assays were set up in FlashPlates pre-coated with 0.1 % PEI in a total volume of 250 μL containing: compound of one of the Examples (10^−5M to 10^−12M), cell membanes, and 50 pM [^125l]-RTI-55 (Perkin Elmer, NEX-272; specific activity 2200 Ci/mmol). The reaction was incubated and gently agitated for 90 minutes at room temperature, and terminated by removal of assay volume. Plates were covered, and bound [^125I]-RTI-55 was determined using a Wallac Trilux Beta Plate Counter. Test compounds were run in duplicate, and specific binding was defined as the difference between binding in the presence and absence of 10 μM citalopram.
as §2

[3] = hNET, HEK-293 cell membranes, 50 pM [125I]-RTI-55, Ki from IC50 by Cheng-Prusoff, read-out: NET Ki
[4] = hSERT, HEK-293 cell membranes, 50 pM [125I]-RTI-55, Ki from IC50 by Cheng-Prusoff, read-out: SERT Ki

T1 sequence (P23975 whole entry): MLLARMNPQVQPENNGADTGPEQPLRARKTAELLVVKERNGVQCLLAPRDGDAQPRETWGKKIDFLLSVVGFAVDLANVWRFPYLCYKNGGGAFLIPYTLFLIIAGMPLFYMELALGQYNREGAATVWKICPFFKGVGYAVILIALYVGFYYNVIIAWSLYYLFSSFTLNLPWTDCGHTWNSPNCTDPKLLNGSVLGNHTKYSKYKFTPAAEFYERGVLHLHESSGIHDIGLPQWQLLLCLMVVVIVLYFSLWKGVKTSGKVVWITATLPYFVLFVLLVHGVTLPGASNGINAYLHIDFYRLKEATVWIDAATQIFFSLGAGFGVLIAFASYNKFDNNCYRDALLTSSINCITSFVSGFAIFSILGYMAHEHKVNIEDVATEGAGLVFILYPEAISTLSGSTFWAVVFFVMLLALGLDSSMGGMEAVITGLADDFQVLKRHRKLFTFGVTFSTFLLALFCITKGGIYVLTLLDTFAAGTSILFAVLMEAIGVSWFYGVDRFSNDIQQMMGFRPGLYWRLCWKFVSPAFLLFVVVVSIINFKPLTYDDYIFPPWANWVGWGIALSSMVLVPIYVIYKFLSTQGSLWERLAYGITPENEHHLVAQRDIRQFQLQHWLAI

SMILES	Ki [1, 3] [nM]	Ki [2, 4] [nM]	Ki [1] [nM]	Ki [2] [nM]
Cn1nc(OC[C@H]2CNCC[C@@H]2c2ccccc2)cc1C(F)(F)F [Example 13, (3R,4S)-3-(1-Methyl-5-trifluoromethyl-1 H-pyrazol-3-yloxymethyl)-4-phenyl-piperidine]	612	2.69		
c1ccc([C@@H]2CCNC[C@H]2COc2ccccc2C2CCCCC2)cc1 (relative stereo) [Example 51, trans-3-(2-Cyclohexyl-phenoxymethyl)-4-phenyl-piperidine]	75	174		
c1ccc(-c2ccccc2OC[C@@H]2CNCC[C@@H]2c2ccccc2)cc1 (relative stereo) [Example 55, cis-3-(Biphenyl-2-yloxymethyl)-4-phenyl-piperidine]	215	1050		
COc1ncccc1OC[C@H]1CNCC[C@@H]1c1ccccc1 [Example 6, (3R,4S)-2-Methoxy-3-(4-phenyl-piperidin-3-ylmethoxy)-pyridine]	3480	0.52		
N#Cc1ccc(OC[C@@H]2CNCC[C@H]2c2ccccc2)cc1 [Example 26, (3S,4R)-4-(4-Phenyl-piperidin-3-ylmethoxy)-benzonitrile]	73.3	21.5		
CC(C)c1cc(C(N)=O)cc(C(C)C)c1OC[C@@H]1CNCC[C@H]1c1ccccc1 [Example 27, (3S,4R)-3,5-Diisopropyl-4-(4-phenyl-piperidin-3-ylmethoxy)-benzamide]	≥ 10000	5230		
COc1cccc(F)c1OC[C@@H]1CNCC[C@H]1c1ccccc1 [Example 41, (3S,4R)-3-(2-Fluoro-6-methoxy-phenoxymethyl)-4-phenyl-piperidine]	3.88	2.67		
c1ccc([C@@H]2CCNC[C@H]2COc2cccnc2OC2CCOCC2)cc1 [Example 16, (3S,4R)-3-(4-Phenyl-piperidin-3-ylmethoxy)-2-(tetrahydro-pyran-4-yloxy)-pyridine]	293	680		
Cc1nccnc1OC[C@@H]1CNCC[C@H]1c1ccccc1 [Example 28, (3S,4R)-2-Methyl-3-(4-phenyl-piperidin-3-ylmethoxy)-pyrazine]	6380	2130		
COCCOc1ncccc1OC[C@H]1CNCC[C@@H]1c1ccccc1 [Example 10, (3R,4S)-2-(2-Methoxy-ethoxy)-3-(4-phenyl-piperidin-3-ylmethoxy)-pyridine]	6260	18.5		
CS(=O)(=O)c1ccccc1OC[C@@H]1CNCC[C@H]1c1ccccc1 [Example 40, (−)-(3S,4R)-3-(2-Methanesulfonyl-phenoxymethyl)-4-phenyl-piperidine]	751	5680		
CNC(=O)c1ccc(OC[C@@H]2CNCC[C@H]2c2ccccc2)cc1 [Example 29, (3S,4R)-N-Methyl-4-(4-phenyl-piperidin-3-ylmethoxy)-benzamide]	309	967		
CCOc1ncccc1OC[C@@H]1CNCC[C@H]1c1ccc(F)cc1 (racemic) [Example 58, (±)-trans-2-Ethoxy-3-[4-(4-fluoro-phenyl)-piperidin-3-ylmethoxy]-pyridine]			6.25	5.97
CCOc1ccccc1OC[C@@H]1CNCC[C@H]1c1ccccc1 (relative stereo) [Example 48, trans-3-(2-Ethoxy-phenoxymethyl)-4-phenyl-piperidine]	2.1			
CCOc1ncccc1OC[C@@H]1CNCC[C@H]1c1cccc(F)c1 (racemic) [Example 59, (±)-trans-2-Ethoxy-3-[4-(3-fluoro-phenyl)-piperidin-3-ylmethoxy]-pyridine]	4.38	10.7		
Cn1nc(OC[C@@H]2CNCC[C@H]2c2ccccc2)cc1C(F)(F)F [Example 24, (3S,4R)-3-(1-Methyl-5-trifluoromethyl-1 H-pyrazol-3-yloxymethyl)-4-phenyl-piperidine]	519	87.7		
CC(C)c1ccccc1OC[C@@H]1CNCC[C@@H]1c1ccccc1 (relative stereo) [Example 54, cis-3-(2-lsopropyl-phenoxymethyl)-4-phenyl-piperidine]	36.5	208		
c1ccc([C@H]2CCNC[C@H]2COc2ccccc2C2CCCCC2)cc1 (relative stereo) [Example 56, cis-3-(2-Cyclohexyl-phenoxymethyl)-4-phenyl-piperidine]	317	542		

SMILES	Ki [1, 3] [nM]	Ki [2, 4] [nM]	Ki [1] [nM]	Ki [2] [nM]
CCOc1ccccc1OC[C@@H]1CNCC[C@H]1c1ccccc1 [Example 18, (3S,4R)-3-(2-Ethoxy-phenoxymethyl)-4-phenyl-piperidine]	1.75			
c1ccc(-c2ccccc2OC[C@@H]2CNCC[C@H]2c2ccccc2)cc1 (relative stereo) [Example 47, trans-3-(Biphenyl-2-yloxymethyl)-4-phenyl-piperidine]	51.5	1050		
NC(=O)c1ncccc1OC[C@@H]1CNCC[C@H]1c1ccccc1 [Example 39, (3S,4R)-3-(4-Phenyl-piperidin-3-ylmethoxy)-pyridine-2-carboxylic acid amide]	146	732		
CC(C)c1ccccc1OC[C@@H]1CNCC[C@H]1c1ccccc1 (relative stereo) [Example 49, trans-3-(2-lsopropyl-phenoxymethyl)-4-phenyl-piperidine]	19.5	83.5		
FC(F)(F)c1ccc(OC[C@@H]2CNCC[C@H]2c2ccccc2)nc1 [Example 19, (3S,4R)-2-(4-Phenyl-piperidin-3-ylmethoxy)-5-trifluoromethyl-pyridine]	144	29.1		
CCOc1cccnc1OC[C@@H]1CNCC[C@H]1c1ccccc1 [Example 43, (3S,4R)-3-Ethoxy-2-(4-phenyl-piperidin-3-ylmethoxy)-pyridine]	14.4	89.7		
CNC(=O)c1ccc(OC[C@@H]2CNCC[C@H]2c2ccccc2)c(OC)c1 [Example 30, (3S,4R)-3-Methoxy-N-methyl-4-(4-phenyl-piperidin-3-ylmethoxy)-benzamide]	534	333		
COc1cccnc1OC[C@@H]1CNCC[C@H]1c1ccccc1 [Example 44, (3S,4R)-3-Methoxy-2-(4-phenyl-piperidin-3-ylmethoxy)-pyridine]	33.3	158		
Cc1ccc(OC[C@@H]2CNCC[C@H]2c2ccccc2)nc1 [Example 20, (3S,4R)-5-Methyl-2-(4-phenyl-piperidin-3-ylmethoxy)-pyridine]	157	3.14		
N#Cc1cccc(OC[C@@H]2CNCC[C@H]2c2ccccc2)c1 [Example 25, (3S,4R)-3-(4-Phenyl-piperidin-3-ylmethoxy)-benzonitrile]	107	2.49		
Cc1cc(C(N)=O)cc(C)c1OC[C@@H]1CNCC[C@H]1c1ccccc1 [Example 34, (3S,4R)-3,5-Dimethyl-4-(4-phenyl-piperidin-3-ylmethoxy)-benzamide]	1440	3500		
FC(F)(F)c1ccc(OC[C@H]2CNCC[C@@H]2c2ccccc2)nc1 [Example 4, (3R,4S)-2-(4-Phenyl-piperidin-3-ylmethoxy)-5-trifluoromethyl-pyridine]	1870	15.3		
CCCc1ccccc1OC[C@@H]1CNCC[C@H]1c1ccccc1 (relative stereo) [Example 50, trans-4-Phenyl-3-(2-propyl-phenoxymethyl)-piperidine]	16	33		
CC(C)COc1ncccc1OC[C@@H]1CNCC[C@H]1c1ccccc1 [Example 15, (3S,4R)-2-lsobutoxy-3-(4-phenyl-piperidin-3-ylmethoxy)-pyridine]	4.9	20.7		
Cc1cccc(OC[C@@H]2CNCC[C@H]2c2ccccc2)n1 [Example 46, (−)-(3S,4R)-2-Methyl-6-(4-phenyl-piperidin-3-ylmethoxy)-pyridine]	233	156		
Cn1nc(C(F)(F)F)cc1OC[C@@H]1CNCC[C@H]1c1ccccc1 [Example 21, (3S,4R)-3-(2-Methyl-5-trifluoromethyl-2H-pyrazol-3-yloxymethyl)-4-phenyl-piperidine]	1260	63.8		
CCOc1ccccc1OC[C@H]1CNCC[C@@H]1c1ccccc1 [Example 3, (3R,4S)-3-(2-Ethoxy-phenoxymethyl)-4-phenyl-piperidine]	1260	18.8		
